Test results as given in patent US8343983B2, “Substituted pyrazolo-pyrimidine compounds” (ArQule, Inc., priority 2009, dated 2013).
Read-outs that look alike come from different tables or passages of the source.

Tested on: cancer cells
Test: MTS assay: inhibition of cell growth (formazan absorbance at 492 nm after 72 hours with test compound)
Type: cell-based
Details: inhibition class
Procedure: Cells were maintained at 37° C., 5% CO2 in DMEM media supplemented with 1% fetal bovine serum, penicillin/streptomycin and fungizone (Invitrogen). Cells were seeded into 96-well tissue culture plates at 3000 per well and cultured at 37° C. for 18 hours. Test compounds were dissolved and diluted to 300× in DMSO then diluted 1:40 in DMEM. Cells were incubated with test compounds for 72 hours followed by incubation with tetrazolium compound (3-(4,5-dimethylthiazol-2-yl)-5-(3-carboxymethoxyphenyl)-2-(4-sulfophenyl)-2H-tetrazolium, inner salt; MTS) and the electron coupling reagent, phenazine methosulfate (PMS) for 4 hours. […] The ability of compounds to inhibit cell growth in this assay is correlated with the reduction of dehydrogenase enzyme activity found in metabolically active cells. The measurement of the absorbance of the formazan was assessed using an ENVISION™ (Perkin Elmer) microplate reader at 492 nm. The calculated IC50 value is the concentration of the test compound that causes a 50% decrease in the absorbance. […] A=>79% inhibition, B=>50 to 79% inhibition, C=<50% inhibition.

[1] = Homo sapiens, DLD-1 cells, read-out: DLD-1, MTS 72 hours at 10 uM
[2] = Homo sapiens, KATO III cells, read-out: KATO III, MTS 72 hours at 10 uM
[3] = Homo sapiens, MDA-MB-231 cells, read-out: MDA-MB-231, MTS 72 hours at 10 uM
[4] = Homo sapiens, NCI-H1299 cells, read-out: NCI-H1299, MTS 72 hours at 10 uM
[5] = Homo sapiens, PC-3 cells, read-out: PC-3, MTS 72 hours at 10 uM
[6] = PACA-2 cells, read-out: PACA-2, MTS 72 hours at 10 uM

Structure (SMILES) | inhibition at 10 µM [1] [%] | inhibition at 10 µM [2] [%] | inhibition at 10 µM [3] [%] | inhibition at 10 µM [4] [%] | inhibition at 10 µM [5] [%] | inhibition at 10 µM [6] [%]
c1ccc(CN2CCc3n[nH]c4nc(N5CCc6ccccc6C5)nc2c34)cc1 [Compound 19, 6-benzyl-4-(3,4-dihydroisoquinolin-2(1H)-yl)-2,6,7,8-tetrahydro-1,2,3,5,6-pentaazaacenaphthylene] | < 50 | < 50 | 50 to 79 | < 50 | 50 to 79 | < 50
COc1cc(OC)nc(CN2CCN(c3nc4c5c(n[nH]c5n3)CCN4Cc3ccccc3)CC2)n1 [Compound 20, 6-benzyl-4-{4-[(4,6-dimethoxypyrimidin-2-yl)methyl]piperazin-1-yl}-2,6,7,8-tetrahydro-1,2,3,5,6-pentaazaacenaphthylene] | < 50 | < 50 | < 50 | < 50 | < 50 | < 50
Cn1c(CNc2nc3c4c(n[nH]c4n2)CCN3Cc2ccccc2)nc2ccccc21 [Compound 21, 6-benzyl-N-[(1-methyl-1H-benzimidazol-2-yl)methyl]-2,6,7,8-tetrahydro-1,2,3,5,6-pentaazaacenaphthylen-4-amine] | < 50 | 50 to 79 | < 50 | < 50 | < 50 | < 50
Fc1ccccc1CCNc1nc2c3c(n[nH]c3n1)CCN2Cc1ccccc1 [Compound 22, 6-benzyl-N-[2-(2-fluorophenyl)ethyl]-2,6,7,8-tetrahydro-1,2,3,5,6-pentaazaacenaphthylen-4-amine] | < 50 | < 50 | < 50 | < 50 | < 50 | < 50
CN(C)CCN(C)c1nc2c3c(n[nH]c3n1)CCN2Cc1ccccc1 [Compound 23, N-(6-benzyl-2,6,7,8-tetrahydro-1,2,3,5,6-pentaazaacenaphthylen-4-yl)-N,N′,N′-trimethylethane-1,2-diamine] | < 50 | < 50 | 50 to 79 | < 50 | > 79 | < 50
COc1ccc(CN2CCN(c3nc4c5c(n[nH]c5n3)CCN4Cc3ccccc3)CC2)cc1 [Compound 24, 6-benzyl-4-[4-(4-methoxybenzyl)piperazin-1-yl]-2,6,7,8-tetrahydro-1,2,3,5,6-pentaazaacenaphthylene] | < 50 | < 50 | < 50 | < 50 | < 50 | < 50
c1ccc(CN2CCc3n[nH]c4nc(NCCCN5CCOCC5)nc2c34)cc1 [Compound 25, 6-benzyl-N-(3-morpholin-4-ylpropyl)-2,6,7,8-tetrahydro-1,2,3,5,6-pentaazaacenaphthylen-4-amine] | < 50 | < 50 | < 50 | < 50 | < 50 | < 50
c1ccc(CN2CCc3n[nH]c4nc(NCCc5c[nH]c6ccccc56)nc2c34)cc1 [Compound 26, 6-benzyl-N-[2-(1H-indol-3-yl)ethyl]-2,6,7,8-tetrahydro-1,2,3,5,6-pentaazaacenaphthylen-4-amine] | < 50 | < 50 | < 50 | < 50 | < 50 | < 50
Cc1cccc(N2CCN(c3nc4c5c(n[nH]c5n3)CCN4Cc3ccccc3)CC2)n1 [Compound 27, 6-benzyl-4-[4-(6-methylpyridin-2-yl)piperazin-1-yl]-2,6,7,8-tetrahydro-1,2,3,5,6-pentaazaacenaphthylene] | < 50 | < 50 | < 50 | < 50 | < 50 | < 50
Brc1cccc(CCNc2nc3c4c(n[nH]c4n2)CCN3Cc2ccccc2)c1 [Compound 28, 6-benzyl-N-[2-(3-bromophenyl)ethyl]-2,6,7,8-tetrahydro-1,2,3,5,6-pentaazaacenaphthylen-4-amine] | < 50 | > 79 | > 79 | > 79 | > 79 | < 50
c1ccc(CN2CCc3n[nH]c4nc(N5CCN(Cc6ccccn6)CC5)nc2c34)cc1 [Compound 29, 6-benzyl-4-[4-(pyridin-2-ylmethyl)piperazin-1-yl]-2,6,7,8-tetrahydro-1,2,3,5,6-pentaazaacenaphthylene] | < 50 | < 50 | < 50 | < 50 | < 50 | < 50
c1ccc(CN2CCc3n[nH]c4nc(NCCc5cccnc5)nc2c34)cc1 [Compound 30, 6-benzyl-N-(2-pyridin-3-ylethyl)-2,6,7,8-tetrahydro-1,2,3,5,6-pentaazaacenaphthylen-4-amine] | 50 to 79 | 50 to 79 | 50 to 79 | < 50 | < 50 | < 50
c1ccc(CN2CCc3n[nH]c4nc(NCc5ccc6c(c5)OCO6)nc2c34)cc1 [Compound 31, N-(1,3-benzodioxol-5-ylmethyl)-6-benzyl-2,6,7,8-tetrahydro-1,2,3,5,6-pentaazaacenaphthylen-4-amine] | < 50 | < 50 | < 50 | < 50 | < 50 | < 50
COc1ccc(CCNc2nc3c4c(n[nH]c4n2)CCN3Cc2ccccc2)cc1 [Compound 32, 6-benzyl-N-[2-(4-methoxyphenyl)ethyl]-2,6,7,8-tetrahydro-1,2,3,5,6-pentaazaacenaphthylen-4-amine] | > 79 | > 79 | > 79 | > 79 | > 79 | > 79
c1ccc(CN2CCN(CCNc3nc4c5c(n[nH]c5n3)CCN4Cc3ccccc3)CC2)cc1 [Compound 33, 6-benzyl-N-[2-(4-benzylpiperazin-1-yl)ethyl]-2,6,7,8-tetrahydro-1,2,3,5,6-pentaazaacenaphthylen-4-amine] | < 50 | < 50 | < 50 | < 50 | < 50 | < 50
c1ccc(CN2CCc3n[nH]c4nc(NCCOc5ccccc5)nc2c34)cc1 [Compound 34, 6-benzyl-N-(2-phenoxyethyl)-2,6,7,8-tetrahydro-1,2,3,5,6-pentaazaacenaphthylen-4-amine] | < 50 | < 50 | 50 to 79 | < 50 | < 50 | 50 to 79
Clc1ccccc1CCNc1nc2c3c(n[nH]c3n1)CCN2Cc1ccccc1 [Compound 35, 6-benzyl-N-[2-(2-chlorophenyl)ethyl]-2,6,7,8-tetrahydro-1,2,3,5,6-pentaazaacenaphthylen-4-amine] | < 50 | < 50 | 50 to 79 | < 50 | < 50 | < 50
COc1cccc(CCNc2nc3c4c(n[nH]c4n2)CCN3Cc2ccccc2)c1 [Compound 36, 6-benzyl-N-[2-(3-methoxyphenyl)ethyl]-2,6,7,8-tetrahydro-1,2,3,5,6-pentaazaacenaphthylen-4-amine] | < 50 | < 50 | < 50 | < 50 | < 50 | < 50
c1ccc(CNc2nc3c4c(n[nH]c4n2)CCN3Cc2ccccc2)cc1 [Compound 37, N,6-dibenzyl-2,6,7,8-tetrahydro-1,2,3,5,6-pentaazaacenaphthylen-4-amine] | < 50 | < 50 | < 50 | < 50 | < 50 | < 50
FC(F)(F)c1cccc(N2CCN(c3nc4c5c(n[nH]c5n3)CCN4Cc3ccccc3)CC2)c1 [Compound 38, 6-benzyl-4-{4-[3-(trifluoromethyl)phenyl]piperazin-1-yl}-2,6,7,8-tetrahydro-1,2,3,5,6-pentaazaacenaphthylene] | < 50 | < 50 | < 50 | < 50 | < 50 | < 50
COc1cccc(CCNc2nc3c4c(n[nH]c4n2)CCN3Cc2ccccc2)c1OC [Compound 39, 6-benzyl-N-[2-(2,3-dimethoxyphenyl)ethyl]-2,6,7,8-tetrahydro-1,2,3,5,6-pentaazaacenaphthylen-4-amine] | < 50 | < 50 | < 50 | < 50 | < 50 | < 50
